Measurements published in patent publication US10370351B2, “Photoinduced electron transfer voltage-sensitive compounds” (The Regents of the University of California, priority 2016, dated 2019).
Converted amounts (≈) assume the structure as drawn.

Columns and labels:
HEK293T cells [1] = test: Voltage sensitivity in HEK cells, whole-cell patch clamp with fluorescence imaging; assay type: cell-based; settings: for ΔF/F (%) voltage sensitivity: per 100 mV, HEK cells, whole-cell voltage clamp, 200 nM VF; for Improvement (%) in voltage sensitivity: relative to corresponding msVF
Description: Functional imaging of VF dyes was performed using a 20× objective paired with image capture from the EMCCD camera at a sampling rate of 0.5 kHz. VF dyes were excited using the 488 nm LED with an intensity of 2.5 W/cm^2. For initial voltage characterization emission was collected with the QUAD filter (430/32, 508/14, 586/30, 708/98 nm) after passing through a quadruple dichroic mirror (432/38, 509/22, 586/40, 654 nm LP).
Recordings were obtained with an Axopatch 200B amplifier (Molecular Devices) at room temperature. The signals were digitized with Digidata 1332A, sampled at 50 kHz and recorded with pCLAMP 10 software (Molecular Devices) on a PC. Fast capacitance was compensated in the on-cell configuration. For all electrophysiology experiments, recordings were only pursued if series resistance in voltage clamp was less than 30 MΩ. For whole-cell, voltage clamp recordings in HEK 293T cells, cells were held at −60 mV and 100 ms hyper- and depolarizing steps applied from −100 to +100 mV in 20 mV increments. For whole-cell, following membrane rupture, resting membrane potential was assessed and recorded at I=0 and monitored during the data acquisition.
Analysis of voltage sensitivity in HEK cells was performed using custom Matlab routines. Briefly, a region of interest (ROI) was selected automatically based on fluorescence intensity and applied as a mask to all image frames. Fluorescence intensity values were calculated at known baseline and voltage step epochs.
To determine the voltage sensitivity of each of the dyes, whole-cell patch clamp electrophysiology was performed on HEK293T cells loaded with 200 nM VF (FIG. 8a-d). Depolarization of the cell membrane in the presence of VF dye results in a large increase of fluorescence, while hyperpolarization results in lower levels of fluorescence (FIG. 8c-d; FIG. 9). As an illustrative comparison, msVF2.2(OMe). […] Cl, at 48% per 100 mV. The disulfoVF2.2(OMe).

[2] = Spectroscopic studies (absorbance, emission, quantum yield); assay type: physicochemical; settings: phosphate-buffered saline, pH 7.4 with 0.1% Triton X-100
Description: Stock solutions of VF dyes were prepared in DMSO (1.0-10 mM) and diluted with PBS (100 mM Na2HPO4, pH 7.4, 0.1% Triton-X). UV-Vis absorbance and fluorescence spectra were recorded using a Shimadzu 2501 Spectrophotometer (Shimadzu) and a Quantamaster Master 4 L-format scanning spectrofluorometer (Photon Technologies International). The fluorometer is equipped with an LPS-220B 75-W xenon lamp and power supply, A-1010B lamp housing with integrated igniter, switchable 814 photon-counting/analog photomultiplier detection unit, and MD5020 motor driver. Samples were measured in 1-cm path length quartz cuvettes (Starna Cells).

[3] = Solubility of VoltageFluor dyes and sulfofluoresceins in water; assay type: physicochemical; settings: for improvement of aqueous solubility by second sulfonate: ds vs ms VF dye, distilled water, 0.1% DMSO, 20 degrees Celsius, UV-Vis; for solubility at 3 days: water, 20 °C, kinetic from dmso stock, H2O with 0.1% DMSO, read-out: aqueous solubility
Description: Suspensions of 5 milligrams each of solid mono- and disulfo-dichlorofluoresceins in 5 mL of distilled water were created. Over the course of three days, 5 milligrams of solid material was added at a time, ensuring that no visible particulates were present in the solution prior to addition. At the end of the experiment, the suspension was filtered through filter paper and then through a 0.22-μm polytetrafluoroethylene filter into a scintillation vial. 10 μL of this filtrate was used as a stock solution to determine the concentration of fluorescein present via UV-Vis spectrophotometry and the remainder was lyophilized and the amount of solid resulting was measured using an analytical microbalance. For VF dyes (VF2.1.Cl and VF2.2(OMe).Cl, both ms and ds versions), saturated solutions in distilled water were prepared via dilution from a 100 μM stock in DMSO for a resulting solution containing 0.1% DMSO. The solutions were allowed to sit overnight at 20 degrees Celsius and then filtered through 0.22-μm filters. The resulting filtrates were used as stock solutions to determine the amount of VF present via UV-Vis spectrophotometry.

HEK293T cells [4] = test: Membrane localization after bath loading, fluorescence imaging; assay type: cell-based; settings: HEK cells
Description: A total of 9 new dyes were made: 6 new dsVF dyes and 3 new msVF dyes. Both msVF and dsVF dyes display similar excitation and emission profiles to previously reported msVF dyes (Table 1, FIG. 7A-I), and all localized to the plasma membrane when applied to HEK293T cells via bath loading (FIG. 8a-b).

rat hippocampal neurons = test: Staining and voltage imaging of cultured rat hippocampal neurons; assay type: cell-based
Description: Cl, it was expected that disulfoVF2.2(OMe). Cl would be well-suited to observing membrane potential changes in neurons. Cultured rat hippocampal neurons bathed in disulfoVF2.2(OMe). […] Cl was also used to image neuronal activity in midbrain dopaminergic (mDA) neurons derived from cultured human pluripotent stem cells (hPSCs) in culture (FIG. 11b) using differentiation conditions adapted from previously established protocols. mDA neurons stained with dsVF2.2(OMe). […] Functional analysis of human- or patient-derived differentiated neurons in a simple, non-invasive manner enabled by dsVF2.2(OMe). Cl can provide an important diagnostic tool alongside more conventional methods in ascertaining proper differentiation as well as in investigating human disease phenotypes.

hPSC-derived mDA neurons = test: Voltage imaging of hPSC-derived midbrain dopaminergic (mDA) neurons; assay type: cell-based, human; settings: mDA neurons stained with 500 nM dye
Description: mDA neurons were derived from H1 human embryonic stem cells (hESCs) using medium conditions as described in Kriks et al., Nature, 480, 547, 2011). On Day 25 of differentiation, cells were harvested from the culture platform and pipetted to generate small 50-100 μm clusters, and seeded on 12 mm glass coverslips coated with 20 μg/ml Laminin (ThermoFischer Scientific). Cells were subsequently matured for 10 days before voltage sensitive imaging.
Functional imaging of mDA cells was performed using a 20× objective paired with image capture from the ORCA-Flash4.0 camera (Hamamatsu) at a sampling rate of 100 Hz. VoltageFluor dye was excited using the 488 nm LED with an intensity of 2.5 W/cm^2. Light was collected with the QUAD filter (430/32, 508/14, 586/30, 708/98 nm) after passing through a quadruple dichroic mirror (432/38, 509/22, 586/40, 654 nm LP). For image analysis, a custom Matlab routine was employed. Briefly, a TIFF stack was imported into Matlab and the intensity values a user-designated block of pixels was extracted as an array. The intensity over time for each block was then baseline corrected by fitting to a 2nd degree polynomial. […]

HEK cells = test: Determination of photostability in HEK cells; assay type: cell-based; settings: compared to msVF2.2(OMe).Cl; 1 μM, 488 nm LED
Description: HEK cells were incubated separately with ms- and ds-VF2.1.Cl and VF2.2(OMe). Cl at 1 μM in HBSS at 37 degrees Celsius for 15 minutes. Data were acquired with a W-Plan-Apo 63×/1.0 objective (Zeiss) and the ORCA-Flash4.0 camera (Hamamatsu). Images were exposed for 10 milliseconds each across 50 seconds with a constant illumination of the 488 nm LED (153 W/cm^2). The excitation light was collected with the QUAD filter (430/32, 508/14, 586/30, 708/98 nm) after passing through a quadruple dichroic mirror (432/38, 509/22, 586/40, 654 nm LP). The fluorescence curves were background subtracted and then normalized to the fluorescence intensity at t=0 and averaged across five cells of each dye.

Compound | ΔF/F (%) voltage sensitivity (HEK293T cells [1]) [%] | Improvement (%) in voltage sensitivity (HEK293T cells [1]) [%] | Φf1 (fluorescence quantum yield) [2] | λabs [2] [nm] | λem [2] [nm] | other results
CN(C)c1ccc(/C=C/c2ccc(/C=C/c3cc(S(=O)(=O)O)c(-c4c5ccc(=O)cc-5oc5cc(O)ccc45)c(S(=O)(=O)O)c3)cc2)cc1 [dsVF2.1.H] | 20 | 17 | 0.14 | 509 | 540 | –
CN(C)c1ccc(/C=C/c2ccc(/C=C/c3cc(S(=O)(=O)O)c(-c4c5cc(Cl)c(=O)cc-5oc5cc(O)c(Cl)cc45)c(S(=O)(=O)O)c3)cc2)cc1 [dsVF2.1.Cl] | 36 | 21 | 0.08 | 520 | 539 | improvement of aqueous solubility by second sulfonate [3]: 22%
CCN(CC)c1ccc(/C=C/c2ccc(/C=C/c3cc(S(=O)(=O)O)c(-c4c5cc(F)c(=O)cc-5oc5cc(O)c(F)cc45)c(S(=O)(=O)O)c3)cc2)c(OC)c1 [dsVF2.2(OMe).F] | 60 | 22 | 0.06 | 509 | 529 | –
CCN(CC)c1ccc(/C=C/c2ccc(/C=C/c3cc(S(=O)(=O)O)c(-c4c5ccc(=O)cc-5oc5cc(O)ccc45)c(S(=O)(=O)O)c3)cc2)c(OC)c1 [dsVF2.2(OMe).H] | 57 | 9 | 0.11 | 510 | 530 | –
CCN(CC)c1ccc(/C=C/c2ccc(/C=C/c3ccc(-c4c5cc(F)c(=O)cc-5oc5cc(O)c(F)cc45)c(S(=O)(=O)O)c3)cc2)c(OC)c1 [msVF2.2(OMe).F] | 49 | – | 0.06 | 505 | 524 | –
O=c1cc2oc3cc(O)c(Cl)cc3c(-c3c(S(=O)(=O)O)cc(Br)cc3S(=O)(=O)O)c-2cc1Cl [ds-dichlorofluorescein, 5-bromo-2′,7′-dichlorodisulfofluorescein] | – | – | – | – | – | solubility at 3 days [3]: ≤ 940 µM
CCN(CC)c1ccc(/C=C/c2ccc(/C=C/c3cc(S(=O)(=O)O)c(-c4c5cc(Cl)c(=O)cc-5oc5cc(O)c(Cl)cc45)c(S(=O)(=O)O)c3)cc2)c(OC)c1 [dsVF2.2(OMe).Cl] | 63 | 19 | 0.07 | 520 | 540 | ΔF/F (%) voltage sensitivity (HEK293T cells [1]; listed as disulfoVF2.2(OMe). Cl): 63%; ΔF/F (%) voltage sensitivity (HEK293T cells [1]; listed as disulfoVF2.2(OMe).Cl): 63%; ΔF/F (%) voltage sensitivity (HEK293T cells [1]; listed as dsVF2.2(OMe). Cl): approximately 63%; improvement of aqueous solubility by second sulfonate [3]: 55%; membrane localization (HEK293T cells [4]): clear membrane localization; membrane staining of neurons (rat hippocampal neurons; confocal microscopy, 500 nM): bright membrane staining; detection of membrane potential changes (rat hippocampal neurons; rat hippocampal neurons): can be used to detect membrane potential changes in rat hippocampal neurons; imaging of neuronal activity (hPSC-derived mDA neurons): revealed distinct firing patterns; photostability (HEK cells): good photostability
CCN(CC)c1ccc(/C=C/c2ccc(/C=C/c3ccc(-c4c5cc(Cl)c(=O)cc-5oc5cc(O)c(Cl)cc45)c(S(=O)(=O)O)c3)cc2)c(OC)c1 [msVF2.2(OMe).Cl] | 53 | – | 0.06 | 518 | 534 | ΔF/F (%) voltage sensitivity (HEK293T cells [1]; listed as msVF2.2(OMe). Cl): approximately 53%
O=c1cc2oc3cc(O)c(Cl)cc3c(-c3ccc(Br)cc3S(=O)(=O)O)c-2cc1Cl [ms-dichlorofluorescein, 5-bromo-2′,7′-dichlorosulfofluorescein] | – | – | – | – | – | solubility at 3 days [3]: 410 µM (≈ 212 µg/mL)
CN(C)c1ccc(/C=C/c2ccc(/C=C/c3cc(S(=O)(=O)O)c(-c4c5cc(F)c(=O)cc-5oc5cc(O)c(F)cc45)c(S(=O)(=O)O)c3)cc2)cc1 [dsVF2.1.F] | 33 | 25 | 0.13 | 507 | 529 | –
5-bromo-2′,7′-dichlorodisulfofluorescein [ds-dichlorofluorescein] | – | – | – | – | – | improvement of aqueous solubility ([3]; relative to monosulfo 5, spectroscopically or gravimetrically): 2.3 fold
CCN(CC)c1ccc(/C=C/c2ccc(/C=C/c3ccc(-c4c5ccc(=O)cc-5oc5cc(O)ccc45)c(S(=O)(=O)O)c3)cc2)c(OC)c1 [msVF2.2(OMe).H] | 53 | – | 0.08 | 508 | 530 | –
